This is an account of results in patent US10994015B2, “EGFR proteolysis targeting chimeric molecules and associated methods of use” (Arvinas Operations, Inc., priority 2016, dated 2021).

Structures are written as SMILES. A value given as a limit tells only on which side of the number the result lay.

The target of assay [1] is HER3 (Homo sapiens (Human), UniProt P21860). Put plainly: TR-FRET assay for ERBB kinases. In kind it is biochemical. The note with it: geometric mean if measured more than once. In general terms: In TR-FRET formats the signal depends on donor and acceptor labels being close together.
Assay [2] has as its target EGFR Exon 20 ASV (HeLa*) (Homo sapiens (Human), UniProt P00533, DUP767-769). The assay can be described thus: EGFR protein degradation assay (Western blot). The class given is cell-based. The note with it: 72 hours, 300 nM to 10 nM. (In general: In western blotting, separated proteins are transferred to a membrane and probed.)
Assay [3] has as its target EGFR L858R/T790M double mutant (H1975) (Homo sapiens (Human), UniProt P00533, L858R/T790M). Put plainly: EGFR protein degradation assay (Western blot). In kind it is cell-based. The note with it: 72 hours, 300 nM to 10 nM. Put shortly:
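EGFR protein levels were measured by immunoblotting. Lysate protein was quantified by BCA, and 10 μg per sample was separated by SDS/PAGE at 165V for 2 hours and transferred to PVDF. Membranes were blocked in TBS-T with 5% milk for 1 hour, probed overnight at 4° C with EGFR and tubulin antibodies, then secondary antibody for 1 hour, and detected by ECL on a Chemidoc.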

The target of assay [4] is EGFR-wt (MDA-MB-231 or MCF7 or A549 or OVCAR8) (Homo sapiens (Human), UniProt P00533). Put plainly: EGFR protein degradation assay (Western blot). In kind it is cell-based. As to conditions: 72 hours, 300 nM to 10 nM. Put shortly:
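EGFR degradation was assessed by Western blot. Cells expressing the appropriate EGFR were seeded in 6-well plates (300,000 cells per well) and adhered overnight. Media was removed, cells were washed with cold phosphate-buffered saline, scraped into 400 μl Cell Signaling lysis buffer plus protease inhibitor cocktail, and spun once at 10 000 rpm for 10 minutes. After BCA quantification, loading buffer and reducing agent were added. Gels loaded with 10 μg protein ran at 165V for 2 hours, and bands were visualized by chemiluminescence.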

Assay [5] concerns the target EGFR L858R/T790M/C797S triple mutant (H520*) (Homo sapiens (Human), UniProt P00533, C797S/L858R/T790M). The assay can be described thus: EGFR protein degradation assay (Western blot). In kind it is cell-based. The note with it: 72 hours, 300 nM to 10 nM. Put shortly:
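EGFR loss in the triple-mutant line measured by immunoblot: clarified lysates normalised by BCA, run on 4-12% Bis-Tris gels, blotted to PVDF, probed with HRP anti-rabbit secondary. Before lysis, cells were dosed from 1, 0.3, 0.1, 0.03 and 0.01 mM DMSO stocks (not final concentrations) after overnight culture at 37° C.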

For assay [6], the target named is EGFR L858R/T790M (Homo sapiens (Human), UniProt P00533, L858R/T790M). Put plainly: TR-FRET assay for ERBB kinases. The class given is biochemical. The note with it: geometric mean if measured more than once. The gist of the method: (§1)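 Kinase + cmpd preinc 10 min; start with mix of 3 mM ATP / 30 uM fluorescein poly-GluTyr (mix concs); 10 min RT; stop with 5 nM Tb-pY20 Ab / 40 mM EDTA. Buffer 50 mM HEPES pH 7.5, 10 mM MgCl2.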
Chain of EGFR L858R/T790M (P00533 25-1210 T790M/L858R): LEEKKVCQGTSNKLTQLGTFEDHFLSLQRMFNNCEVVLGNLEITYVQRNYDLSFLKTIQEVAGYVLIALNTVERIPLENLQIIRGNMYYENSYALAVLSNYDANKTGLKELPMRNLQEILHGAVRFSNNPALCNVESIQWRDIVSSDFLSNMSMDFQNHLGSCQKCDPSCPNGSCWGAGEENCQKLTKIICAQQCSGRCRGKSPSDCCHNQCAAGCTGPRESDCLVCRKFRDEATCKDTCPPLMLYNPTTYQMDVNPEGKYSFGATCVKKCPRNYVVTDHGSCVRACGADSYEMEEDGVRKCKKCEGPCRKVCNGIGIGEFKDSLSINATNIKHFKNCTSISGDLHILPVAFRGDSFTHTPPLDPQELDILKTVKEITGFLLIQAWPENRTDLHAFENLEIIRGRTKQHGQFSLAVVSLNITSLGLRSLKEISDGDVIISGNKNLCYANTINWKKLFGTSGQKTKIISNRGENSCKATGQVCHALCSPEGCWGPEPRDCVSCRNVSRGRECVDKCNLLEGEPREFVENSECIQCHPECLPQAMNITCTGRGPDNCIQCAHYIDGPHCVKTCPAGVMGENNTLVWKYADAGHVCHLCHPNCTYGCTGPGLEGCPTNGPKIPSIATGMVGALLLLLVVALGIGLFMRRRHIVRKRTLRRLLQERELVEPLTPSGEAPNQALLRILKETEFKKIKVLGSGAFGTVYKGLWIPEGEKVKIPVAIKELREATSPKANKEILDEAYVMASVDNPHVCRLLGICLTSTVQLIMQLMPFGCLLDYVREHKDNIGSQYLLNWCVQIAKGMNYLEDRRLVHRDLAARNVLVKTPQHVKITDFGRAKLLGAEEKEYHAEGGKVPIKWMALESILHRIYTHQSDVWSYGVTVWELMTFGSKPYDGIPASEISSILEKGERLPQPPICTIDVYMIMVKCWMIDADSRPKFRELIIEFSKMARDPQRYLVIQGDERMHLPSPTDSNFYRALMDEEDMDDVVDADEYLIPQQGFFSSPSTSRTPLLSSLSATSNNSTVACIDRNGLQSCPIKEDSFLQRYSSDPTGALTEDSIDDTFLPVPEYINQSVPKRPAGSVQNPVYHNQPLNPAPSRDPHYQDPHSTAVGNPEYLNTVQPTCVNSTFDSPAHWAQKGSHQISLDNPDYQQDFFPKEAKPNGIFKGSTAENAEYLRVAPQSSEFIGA

Assay [7] addresses EGFR L858R/T790M/C797S (Homo sapiens (Human), UniProt P00533, C797S/L858R/T790M). Put plainly: TR-FRET assay for ERBB kinases. The class given is biochemical. The note with it: geometric mean if measured more than once. The gist of the method:
as §1

Assay [8] concerns the target EGFR WT (Homo sapiens (Human), UniProt P00533). Put plainly: TR-FRET assay for ERBB kinases. In kind it is biochemical. The note with it: geometric mean if measured more than once. The gist of the method:
as §1

In assay [9] the target is EGFR Exon20NPG (Homo sapiens (Human), UniProt P00533, INS770NPG). Put plainly: TR-FRET assay for ERBB kinases. The class given is biochemical. The note with it: geometric mean if measured more than once. The gist of the method: (§2)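 Phosphorylation of fluorescein-labeled poly-GluTyr read as TR-FRET using Tb-pY20 antibody after EDTA stop, with 340 nm excitation. Kinase reaction ran 10 min at room temperature following 10 min compound pre-incubation; substrate mix held 3 mM ATP and 30 µM peptide before addition. Buffer was HEPES pH 7.5.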

The target in assay [10] is EGFR L858R (Homo sapiens (Human), UniProt P00533, L858R). Put plainly: TR-FRET assay for ERBB kinases. The class given is biochemical. The note with it: geometric mean if measured more than once. The gist of the method: as §2
Assay [11] addresses EGFR Δ19/746/750 (Homo sapiens (Human), UniProt P00533, DEL746-750). Put plainly: TR-FRET assay for ERBB kinases. The class given is biochemical. As to conditions: geometric mean if measured more than once. The gist of the method:
as §2

In assay [12] the target is EGFR Δ19/746/750 T790M (Homo sapiens (Human), UniProt P00533, DEL746-750/T790M). The assay can be described thus: TR-FRET assay for ERBB kinases. The note with it: geometric mean if measured more than once. The class given is biochemical. The gist of the method: as §2
Assay [13] concerns the target HER2WT (Homo sapiens (Human), UniProt P04626). The assay can be described thus: TR-FRET assay for ERBB kinases. As to conditions: geometric mean if measured more than once. The class given is biochemical. The gist of the method:
as §2

Chain of EGFR L858R/T790M/C797S triple mutant (H520*) (P00533 25-1210 T790M/C797S/L858R): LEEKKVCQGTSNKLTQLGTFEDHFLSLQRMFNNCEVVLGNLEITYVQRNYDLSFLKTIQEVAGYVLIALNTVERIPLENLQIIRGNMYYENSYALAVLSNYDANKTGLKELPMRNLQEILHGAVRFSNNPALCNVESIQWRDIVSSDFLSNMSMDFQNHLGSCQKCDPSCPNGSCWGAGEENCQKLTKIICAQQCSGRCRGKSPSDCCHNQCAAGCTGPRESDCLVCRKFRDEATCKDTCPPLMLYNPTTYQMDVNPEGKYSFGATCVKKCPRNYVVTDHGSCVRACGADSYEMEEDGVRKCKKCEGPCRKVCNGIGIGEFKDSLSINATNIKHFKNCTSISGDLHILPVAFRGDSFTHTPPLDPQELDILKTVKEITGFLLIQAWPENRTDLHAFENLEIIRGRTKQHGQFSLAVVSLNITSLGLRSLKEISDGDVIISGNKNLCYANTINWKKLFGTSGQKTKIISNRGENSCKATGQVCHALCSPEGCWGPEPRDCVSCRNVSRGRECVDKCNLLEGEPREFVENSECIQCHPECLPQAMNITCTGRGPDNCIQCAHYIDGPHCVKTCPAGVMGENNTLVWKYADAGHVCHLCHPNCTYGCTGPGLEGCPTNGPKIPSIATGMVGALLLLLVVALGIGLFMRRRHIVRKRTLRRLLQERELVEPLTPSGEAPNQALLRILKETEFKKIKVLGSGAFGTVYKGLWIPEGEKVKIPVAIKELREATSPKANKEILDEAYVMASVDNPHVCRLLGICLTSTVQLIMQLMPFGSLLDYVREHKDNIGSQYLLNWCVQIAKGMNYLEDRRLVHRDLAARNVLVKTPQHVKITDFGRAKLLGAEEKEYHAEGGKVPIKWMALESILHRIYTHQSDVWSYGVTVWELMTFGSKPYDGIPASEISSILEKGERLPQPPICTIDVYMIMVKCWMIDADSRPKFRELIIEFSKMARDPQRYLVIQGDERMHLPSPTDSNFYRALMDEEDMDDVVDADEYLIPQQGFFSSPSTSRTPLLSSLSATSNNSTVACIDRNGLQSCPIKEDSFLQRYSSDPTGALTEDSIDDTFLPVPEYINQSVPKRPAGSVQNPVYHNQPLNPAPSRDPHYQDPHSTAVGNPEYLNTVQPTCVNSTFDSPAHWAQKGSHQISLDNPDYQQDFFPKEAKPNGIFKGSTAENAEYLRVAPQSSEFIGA
Chain of EGFR L858R/T790M/C797S (P00533 25-1210 T790M/C797S/L858R): as above
Chain of EGFR Exon 20 ASV (HeLa*) (P00533 other isoform, or with tags, fused parts or gaps dup 767-769): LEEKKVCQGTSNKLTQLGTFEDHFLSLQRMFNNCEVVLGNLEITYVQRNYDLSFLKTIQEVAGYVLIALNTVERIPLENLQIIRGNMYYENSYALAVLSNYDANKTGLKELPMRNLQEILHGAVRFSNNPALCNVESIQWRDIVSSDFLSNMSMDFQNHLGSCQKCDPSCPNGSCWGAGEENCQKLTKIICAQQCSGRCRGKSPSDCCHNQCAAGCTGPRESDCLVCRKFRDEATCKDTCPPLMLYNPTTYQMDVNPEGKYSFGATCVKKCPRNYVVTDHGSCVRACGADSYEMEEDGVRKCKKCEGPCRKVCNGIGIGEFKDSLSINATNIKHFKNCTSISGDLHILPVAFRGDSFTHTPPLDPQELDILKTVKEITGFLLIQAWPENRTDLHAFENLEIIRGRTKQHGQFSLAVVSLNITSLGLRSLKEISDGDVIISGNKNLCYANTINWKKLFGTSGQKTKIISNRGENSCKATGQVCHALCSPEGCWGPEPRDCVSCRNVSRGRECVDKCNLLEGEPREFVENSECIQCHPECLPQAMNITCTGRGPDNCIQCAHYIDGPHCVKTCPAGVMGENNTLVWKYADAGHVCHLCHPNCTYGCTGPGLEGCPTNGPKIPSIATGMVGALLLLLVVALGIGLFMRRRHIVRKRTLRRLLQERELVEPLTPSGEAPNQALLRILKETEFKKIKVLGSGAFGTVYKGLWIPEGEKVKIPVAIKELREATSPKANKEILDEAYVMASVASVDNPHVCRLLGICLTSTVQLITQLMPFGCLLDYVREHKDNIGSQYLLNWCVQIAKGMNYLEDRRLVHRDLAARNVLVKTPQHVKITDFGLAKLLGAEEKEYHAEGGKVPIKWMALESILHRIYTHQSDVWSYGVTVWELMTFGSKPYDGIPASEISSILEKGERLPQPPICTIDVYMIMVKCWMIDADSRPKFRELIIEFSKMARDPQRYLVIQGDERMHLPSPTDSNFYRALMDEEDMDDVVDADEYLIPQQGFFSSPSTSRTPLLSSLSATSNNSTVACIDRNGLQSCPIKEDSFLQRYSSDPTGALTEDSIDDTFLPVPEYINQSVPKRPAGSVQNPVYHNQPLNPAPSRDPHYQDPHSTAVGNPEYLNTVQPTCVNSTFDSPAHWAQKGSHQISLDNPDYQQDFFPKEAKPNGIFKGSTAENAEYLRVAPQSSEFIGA

The IC50 is the concentration at which inhibition is half-maximal. For `Cc1ncsc1-c1ccc(CNC(=O)[C@@H]2C[C@@H](O)CN2C(=O)[C@@H](NC(=O)CCCCCOCCCCOCCCCOc2cc3ncnc(Nc4ccc(F)c(Cl)c4)c3cc2NC(=O)/C=C/CN(C)C)C(C)(C)C)cc1` [Example 66, (2S,4R)-1-((S)-2-(6-(4-(4-((4-((3-chloro-4-fluorophenyl)amino)-6-((E)-4-(dimethylamino)but-2-enamido)quinazolin-7-yl)oxy)butoxy)butoxy)hexanamido)-3,3-dimethylbutanoyl)-4-hydroxy-N-(4-(4-methylthiazol-5-yl)benzyl)pyrrolidine-2-carboxamide], 6.6 µM corresponded to half-maximal inhibition in assay [1] (IC50). Moreover, the “EGFR protein remaining, EGFR Exon 20 ASV” value in assay [2] is “B (≤80% and >50% EGFR protein remaining after 72 hours of incubation with the test compound at a concentration between 300 nM and 10 nM)”. For the same compound, in assay [3], the “EGFR protein remaining, EGFR L858R/T790M double mutant” value is “A (≤50% EGFR protein remaining after 72 hours of incubation with the test compound at a concentration between 300 nM and 10 nM)”. In addition, the “EGFR protein remaining, EGFR-wt” value in [4] was “A (≤50% EGFR protein remaining after 72 hours of incubation with the test compound at a concentration between 300 nM and 10 nM)”. The “EGFR protein remaining, EGFR L858R/T790M/C797S triple mutant” value in assay [5] is given as “C (>80% EGFR protein remaining after 72 hours of incubation with the test compound at a concentration of 300 nM)”.

For `O=C1CCC(N2C(=O)c3cccc(NCCOCCOCCOCCOCCOCCN4CCN(Cc5ccc(-c6cc7c(NCc8ccccc8Cl)ncnc7[nH]6)cc5)CC4)c3C2=O)C(=O)N1` (stereo not drawn) [Example 8, 4-((17-(4-(4-(4-((2-chlorobenzyl)amino)-7H-pyrrolo[2,3-d]pyrimidin-6-yl)benzyl)piperazin-1-yl)-3,6,9,12,15-pentaoxaheptadecyl)amino)-2-(2,6-dioxopiperidin-3-yl)isoindoline-1,3-dione], the half-inhibitory concentration (IC50) in assay [6] was determined as 7.2 µM; in [7], 3.2 µM; in [8] it was 0.089 µM; in [9], 0.45 µM; in assay [10], 0.011 µM; in assay [11], 0.0017 µM. In addition, the IC50 in assay [12] was determined as 4.8 µM; in assay [13], 1.2 µM. For the same compound, in [2], the “EGFR protein remaining, EGFR Exon 20 ASV” value is listed as “C (>80% EGFR protein remaining after 72 hours of incubation with the test compound at a concentration of 300 nM)”. Moreover, the “EGFR protein remaining, EGFR-wt” value in assay [4] is recorded as “C (>80% EGFR protein remaining after 72 hours of incubation with the test compound at a concentration of 300 nM)”.

As to `Cc1ncsc1-c1ccc(CNC(=O)[C@@H]2C[C@@H](O)CN2C(=O)[C@@H](NC(=O)COCCOCCOc2ccc(-c3cc4c(NCc5ccccc5Cl)ncnc4[nH]3)cc2)C(C)(C)C)cc1` [compound 15], the IC50 is greater than 30 µM in assay [6]; 17 µM in [7]; 0.69 µM in assay [8]; 4.7 µM in assay [9]; 0.2 µM in [10]; 0.14 µM in assay [11]. In addition, the IC50 in assay [12] was greater than 30 µM; in assay [13], 19 µM. In addition, the “EGFR protein remaining, EGFR Exon 20 ASV” value in assay [2] was “C (>80% EGFR protein remaining after 72 hours of incubation with the test compound at a concentration of 300 nM)”. Also, the “EGFR protein remaining, EGFR-wt” value in [4] is “C (>80% EGFR protein remaining after 72 hours of incubation with the test compound at a concentration of 300 nM)”.

In the case of `Cc1ncsc1-c1ccc([C@H](C)NC(=O)[C@@H]2C[C@@H](O)CN2C(=O)[C@@H](NC(=O)CN2CCN(CCCC#Cc3cccc4c3C(=O)N(C(C(=O)Nc3nccs3)c3cc(F)ccc3O)C4)CC2)C(C)(C)C)cc1` (stereo partly drawn) [Example 80, (2S,4R)-1-((2S)-2-(2-(4-(5-(2-(1-(5-fluoro-2-hydroxyphenyl)-2-oxo-2-(thiazol-2-ylamino)ethyl)-3-oxoisoindolin-4-yl)pent-4-yn-1-yl)piperazin-1-yl)acetamido)-3,3-dimethylbutanoyl)-4-hydroxy-N—((S)-1-(4-(4-methylthiazol-5-yl)phenyl)ethyl)pyrrolidine-2-carboxamide], the concentration for half-maximal inhibition (IC50) is 4.7 µM in [6]; 2.2 µM in [7]; 4.7 µM in assay [8]; 13 µM in [9]; greater than 30 µM in assay [1]. Moreover, in assay [3], the “EGFR protein remaining, EGFR L858R/T790M double mutant” value is recorded as “C (>80% EGFR protein remaining after 72 hours of incubation with the test compound at a concentration of 300 nM)”. The “EGFR protein remaining, EGFR L858R/T790M/C797S triple mutant” value in [5] was “C (>80% EGFR protein remaining after 72 hours of incubation with the test compound at a concentration of 300 nM)”.

As to `Cc1ncsc1-c1ccc(CNC(=O)[C@@H]2C[C@@H](O)CN2C(=O)[C@@H](NC(=O)COCCOCCOc2ccc(-c3ccc4ncnc(Nc5ccc(OCc6cccc(F)c6)c(Cl)c5)c4c3)cc2)C(C)(C)C)cc1` [Example 97, (2S,4R)-1-((S)-2-(2-(2-(2-(4-(4-((3-Chloro-4-((3-fluorobenzyl)oxy)phenyl)amino)quinazolin-6-yl)phenoxy)ethoxy)ethoxy)acetamido)-3,3-dimethylbutanoyl)-4-hydroxy-N-(4-(4-methylthiazol-5-yl)benzyl)pyrrolidine-2-carboxamide], the IC50 in assay [6] is greater than 30 µM; in [7], greater than 30 µM; in [8] it was 1.5 µM; in assay [9], greater than 30 µM; in assay [1], 29 µM. Also, in assay [2], the “EGFR protein remaining, EGFR Exon 20 ASV” value was “A (≤50% EGFR protein remaining after 72 hours of incubation with the test compound at a concentration between 300 nM and 10 nM)”. Further, the “EGFR protein remaining, EGFR L858R/T790M double mutant” value in assay [3] is “B (≤80% and >50% EGFR protein remaining after 72 hours of incubation with the test compound at a concentration between 300 nM and 10 nM)”. In [4], the “EGFR protein remaining, EGFR-wt” value was “A (≤50% EGFR protein remaining after 72 hours of incubation with the test compound at a concentration between 300 nM and 10 nM)”.

`COC1CCN(c2nccc(Nc3cc4c(cn3)nc(COCCN3CCN(CCOc5ccc6c(c5)C(=O)N(C5CCC(=O)NC5=O)C6=O)CC3)n4C(C)C)n2)CC1` (stereo not drawn) [Example 76, 2-(2,6-dioxopiperidin-3-yl)-5-(2-(4-(2-((1-isopropyl-6-((2-(4-methoxypiperidin-1-yl)pyrimidin-4-yl)amino)-1H-imidazo[4,5-c]pyridin-2-yl)methoxy)ethyl)piperazin-1-yl)ethoxy)isoindoline-1,3-dione]: the IC50 came out at 0.36 µM in assay [6]; 0.036 µM in assay [7]; 17 µM in assay [8]; 14 µM in assay [9]; 8.6 µM in [1]. The “EGFR protein remaining, EGFR L858R/T790M double mutant” value in assay [3] was “C (>80% EGFR protein remaining after 72 hours of incubation with the test compound at a concentration of 300 nM)”. Also, in assay [5], the “EGFR protein remaining, EGFR L858R/T790M/C797S triple mutant” value is “C (>80% EGFR protein remaining after 72 hours of incubation with the test compound at a concentration of 300 nM)”.

On to `Cc1ncsc1-c1ccc([C@H](C)NC(=O)[C@H]2C[C@H](O)CN2C(=O)[C@@H](NC(=O)CN2CCN(CCCOCC#Cc3cccc4c3C(=O)N(C(C(=O)Nc3nccs3)c3cc(F)ccc3O)C4)CC2)C(C)(C)C)cc1` (stereo partly drawn) [compound 90], for which the half-maximal inhibitory concentration (IC50) in assay [6] was determined as 0.74 µM; in assay [7], 0.69 µM; in assay [8] it was 1.3 µM; in assay [9], 3.4 µM; in assay [1], 29 µM. Moreover, in assay [3], the “EGFR protein remaining, EGFR L858R/T790M double mutant” value is reported as “C (>80% EGFR protein remaining after 72 hours of incubation with the test compound at a concentration of 300 nM)”. For the same compound, the “EGFR protein remaining, EGFR L858R/T790M/C797S triple mutant” value in assay [5] is given as “C (>80% EGFR protein remaining after 72 hours of incubation with the test compound at a concentration of 300 nM)”.
